Laboratory results from the OligoGym collection.
HELM strings list units from the 5' end as sugar, base in round brackets, then linkage (d deoxyribose, r ribose, m 2'-O-methyl, p phosphodiester). [sp] = phosphorothioate linkage

Key:
CDKN2B-AS1 [1] = assay: HEK293-TLR7, 100 nM ASO, then resiquimod
CDKN2B-AS1 [2] = assay: HEK293-TLR8, 100 nM ASO, then resiquimod

Substance	TLR7 signal (NF-kB luciferase) (% of resiquimod alone) (CDKN2B-AS1 [1])	TLR8 potentiation (NF-kB luciferase) (fold of resiquimod alone) (CDKN2B-AS1 [2])
RNA1{m(C)[sp].m(A)[sp].m(G)[sp].m(G)[sp].m(C)[sp].d(C)[sp].d(T)[sp].d(C)[sp].d(C)[sp].d(A)[sp].d(G)[sp].d(T)[sp].d(G)[sp].d(T)[sp].d(C)[sp].m(U)[sp].m(U)[sp].m(C)[sp].m(U)[sp].m(C)}$$$$	54.1	2.02
RNA1{m(C)[sp].m(A)[sp].m(G)[sp].m(U)[sp].m(C)[sp].d(T)[sp].d(C)[sp].d(C)[sp].d(A)[sp].d(T)[sp].d(G)[sp].d(T)[sp].d(C)[sp].d(C)[sp].d(C)[sp].m(A)[sp].m(G)[sp].m(G)[sp].m(C)[sp].m(C)}$$$$	47.8	2.73
RNA1{m(G)[sp].m(U)[sp].m(C)[sp].m(A)[sp].m(A)[sp].d(A)[sp].d(C)[sp].d(C)[sp].d(T)[sp].d(A)[sp].d(G)[sp].d(A)[sp].d(A)[sp].d(A)[sp].d(G)[sp].m(A)[sp].m(A)[sp].m(G)[sp].m(C)[sp].m(A)}$$$$	23.6	1.6
RNA1{m(A)[sp].m(A)[sp].m(G)[sp].m(C)[sp].m(A)[sp].d(G)[sp].d(T)[sp].d(C)[sp].d(T)[sp].d(C)[sp].d(C)[sp].d(A)[sp].d(T)[sp].d(G)[sp].d(T)[sp].m(C)[sp].m(C)[sp].m(C)[sp].m(A)[sp].m(G)}$$$$	35.7	1.79
RNA1{m(G)[sp].m(G)[sp].m(A)[sp].m(C)[sp].m(A)[sp].d(C)[sp].d(T)[sp].d(T)[sp].d(A)[sp].d(G)[sp].d(C)[sp].d(T)[sp].d(G)[sp].d(T)[sp].d(T)[sp].m(C)[sp].m(C)[sp].m(U)[sp].m(C)[sp].m(G)}$$$$	45.8	1.13
RNA1{m(G)[sp].m(U)[sp].m(C)[sp].m(U)[sp].m(C)[sp].d(C)[sp].d(A)[sp].d(T)[sp].d(G)[sp].d(T)[sp].d(C)[sp].d(C)[sp].d(C)[sp].d(A)[sp].d(G)[sp].m(G)[sp].m(C)[sp].m(C)[sp].m(U)[sp].m(C)}$$$$	23.8	1.01
RNA1{m(A)[sp].m(A)[sp].m(U)[sp].m(A)[sp].m(U)[sp].d(C)[sp].d(T)[sp].d(G)[sp].d(C)[sp].d(T)[sp].d(G)[sp].d(C)[sp].d(C)[sp].d(C)[sp].d(A)[sp].m(C)[sp].m(C)[sp].m(U)[sp].m(U)[sp].m(C)}$$$$	43.7	1.79
RNA1{m(C)[sp].m(U)[sp].m(U)[sp].m(G)[sp].m(U)[sp].d(G)[sp].d(A)[sp].d(A)[sp].d(A)[sp].d(A)[sp].d(G)[sp].d(A)[sp].d(T)[sp].d(T)[sp].d(A)[sp].m(U)[sp].m(C)[sp].m(U)[sp].m(U)[sp].m(C)}$$$$	85.3	3.89
RNA1{m(G)[sp].m(G)[sp].m(A)[sp].m(G)[sp].m(A)[sp].d(T)[sp].d(C)[sp].d(A)[sp].d(G)[sp].d(A)[sp].d(T)[sp].d(G)[sp].d(A)[sp].d(G)[sp].d(A)[sp].m(G)[sp].m(G)[sp].m(A)[sp].m(G)[sp].m(C)}$$$$	26.3	1.05
RNA1{m(A)[sp].m(G)[sp].m(A)[sp].m(U)[sp].m(U)[sp].d(A)[sp].d(T)[sp].d(C)[sp].d(T)[sp].d(T)[sp].d(C)[sp].d(T)[sp].d(T)[sp].d(T)[sp].d(T)[sp].m(A)[sp].m(A)[sp].m(U)[sp].m(U)[sp].m(U)}$$$$	37.1	3.02
RNA1{m(G)[sp].m(U)[sp].m(C)[sp].m(U)[sp].m(C)[sp].d(T)[sp].d(A)[sp].d(C)[sp].d(T)[sp].d(G)[sp].d(T)[sp].d(T)[sp].d(A)[sp].d(C)[sp].d(C)[sp].m(U)[sp].m(C)[sp].m(U)[sp].m(G)[sp].m(A)}$$$$	19.2	2.41
